Test results as given in paper PMC4055232 (Malaria Journal, 2014).
Read-outs that look alike come from different tables or passages of the source. Marks after values point to notes of the source that are not given here.

Key:
[1] = Pharmacokinetics of QHS and its phase I/II metabolites in plasma after oral QHS-PQ (Artequick); conditions: for CL/F / Cmax / MRT / AUC 0-t /dose: mean ± sd; for Cmax / MRT / Tmax: in vivo; for Cmax: C max; for Tmax: T max
Protocol: The chromatography was performed at 22°C. The mobile phase consisted of acetonitrile and 5 mM aqueous ammonium acetate containing 0.1% (v/v) formic acid, delivered at a flow rate of 0.35 mL/min. The gradient chromatographic conditions were shown in the previous report. The autosampler was set at 4°C.
(§1) Plasma samples were subjected to a protein precipitation extraction process, which was performed on ice. A 100 μL aliquot of human plasma was mixed with 25 μL of acetonitrile and 200 μL of IS (1 μM of ARM, prepared in acetonitrile). The mixture was mixed and centrifuged at 3,000 g for 10 min. Aliquots (20 μL) of the solution were injected onto LC-MS analysis. […] This mixture was treated as above.
Plasma was separated by centrifugation at 3,000 g for 10 min at 4°C. The plasma was stored at -80°C until analysis.
(§2) The peak plasma concentration (Cmax) and time-to-peak concentration (Tmax) were obtained from experimental observations. The other pharmacokinetic parameters were analysed by non-compartmental model using the program TOPFIT (version 2.0; Thomae GmbH, Germany). The area under the plasma concentration-time curve (AUC o-t ) was calculated using the linear trapezoidal rule to approximately the last point. The mean residence time (MRT) was obtained by dividing the area under the first moment-time curve (AUMC 0-t ) by the area under the curve (AUC 0-t ). Total oral body clearance (CL/F) was calculated as dose/AUC 0-t .
(§3) Results were expressed as mean ± SD. The two-tailed t-test was used for paired comparison of the pharmacokinetic parameters between the single dose and multiple doses after logarithmic transformation. Geometric mean ratios with 90% confidence intervals (CIs) were calculated after log transformation of within-subject data. The comparison of Tmax for the different treatment groups was performed using the Wilcoxon signed-rank test. The acceptable level of significance was established at P < 0.05 or P < 0.01.

[2] = Bench-top stability of QC samples in human plasma on ice; type: in vitro ADME; conditions: human plasma on ice for at least 2 hours; difference < 15%
[3] = cited from earlier work
[4] = Pharmacokinetics of probe drug cocktail (bupropion, midazolam) and their metabolites before and after QHS-PQ; type: in vivo, human; conditions: for Tmax / T max: value (range); for Geometric mean ratio (90% CI) of AUC 0-t /dose / Geometric mean ratio (90% CI) of C max / Geometric mean ratio (90% CI) of CL/F / Geometric mean ratio (90% CI) of MRT: 2-day (after QHS-PQ) versus 1-day (day -14); for AUC 0-t /dose: mean ± sd
Protocol: The chromatography was performed at 22°C. The mobile phase consisted of B (acetonitrile) and A (0.1% formic acid in water), which increased linearly from 20% B to 90% B during 7 min before column re-equilibration at a flow rate of 0.3 mL/min.
as §1, with “process.” for “process, which was performed on ice.”, “alprazolam,” for “ARM,”, “above. […] Plasma samples were diluted with blank plasma and reanalysed when the concentration of any analyte was higher than the upper limit of quantification.” for “above.”
Venous blood samples (2 mL) for analysis of probe drugs and their metabolites were taken from an indwelling intravenous catheter at 0, 0.25, 0.75, 1.5, 2.0, 3.0, 4.0, 5.0, 7.0, 11.0, 24.0, 36.0, and 48.0 hours.
as §2, §3

CAR1/3 = conditions: cited from earlier work
PXR = conditions: cited from earlier work
[5] = human, po, 2-day oral QHS-PQ, value (range)
[6] = human, plasma, oral, row '1-day': probe cocktail before QHS-PQ (day -14)
[7] = human, plasma, oral, row '1-day': probe cocktail before QHS-PQ (day -14), read-out: CL/F (converted)
[8] = human, plasma, oral, row '1-day': probe cocktail before QHS-PQ (day -14), read-out: MRT
[9] = human, plasma, oral, row '2-day': probe cocktail after second dose of QHS-PQ
[10] = human, plasma, oral, row '2-day': probe cocktail after second dose of QHS-PQ, read-out: CL/F (converted)
[11] = human, plasma, oral, row '2-day': probe cocktail after second dose of QHS-PQ, read-out: MRT
[12] = listed as '1-day': oral probe cocktail (bupropion 75 mg, midazolam 15 mg) on day -14, before QHS-PQ
[13] = listed as '1-day': probe cocktail before QHS-PQ (day -14)
[14] = listed as '2-day': probe cocktail 1 hour after second oral dose of QHS-PQ (day 2)
[15] = listed as '2-day': probe cocktail after second dose of QHS-PQ

Compound	Cmax ([1]; human, po, 1-day oral QHS-PQ)	Cmax ([1]; human, po, 2-day oral QHS-PQ)	MRT ([1]; human, po, 1-day oral QHS-PQ)	MRT ([1]; human, po, 2-day oral QHS-PQ)	Tmax [1, 5]	stability in plasma [2]	Cmax [4, 6]	Tmax [4, 6]	CL/F [4, 7]	MRT [4, 8]	Cmax [4, 9]	Tmax [4, 9]	CL/F [4, 10]	MRT [4, 11]	Geometric mean ratio (90% CI) of AUC 0-t /dose [4]	Geometric mean ratio (90% CI) of C max [4]	Geometric mean ratio (90% CI) of CL/F [4]	Geometric mean ratio (90% CI) of MRT [4]	AUC 0-t /dose [4, 12]	CL/F [4, 13]	further results
C[C@@H]1CC[C@H]2[C@@H](C)C(=O)O[C@@H]3O[C@@]4(C)CC[C@@H]1[C@]32OO4 [QHS, Artemisinin, reference compound]	304 ± 192 nM	221 ± 118 nM	3.2 ± 0.9 h	2.9 ± 0.9 h	1.4 h	stable															CL/F ([1]; 1-day oral QHS-PQ, dose/AUC0-t): 164 ± 138 mL/min/kg; change of Cmax, Tmax and MRT after repeated drug dosing ([1]; P > 0.05): did not change; inter-individual variability (%CV) for AUC 0-t ([1]; after the first dose, range 6.9-122.7%): 43.5%; CL/F ([1]; human, plasma, po, CL/F, 1-day oral QHS-PQ, dose/AUC0-t): 163 mL/min/kg; CL/F ([1]; human, plasma, po, CL/F, 2-day oral QHS-PQ): 277 mL/min/kg; decrease in AUC 0-t, second oral dose compared with the first dose ([1]; oral QHS-PQ, two consecutive days): 35.2%; dose-normalized AUC, reported range ([3]; healthy subjects and patients who received 500 mg of QHS): 0.06 to 0.31 kg·h/L; dose-normalized AUC, reported range ([3]; infected children, dose […]): 0.33 to 0.49 kg·h/L
Cc1ncc2n1-c1ccc(Cl)cc1C(c1ccccc1F)=NC2 [MDZ, midazolam]							206 ± 115 nM	1.3 h	18.2 mL/min/kg	4.1 ± 0.7 h	305 ± 115 nM	0.8 h	11.7 mL/min/kg	4.2 ± 0.7 h							
(±)-hydroxybupropion [OH-BUP]															2.05 (1.83, 2.30)**	1.65 (1.51, 1.82)**	0.49 (0.43, 0.55)**	1.04 (1.00, 1.07)	3.98 ± 1.45 kg·h/L	4.83 ± 1.83 mL/min/kg	Cmax [4, 13]: 518 ± 162 nM; MRT [4, 13]: 19.4 ± 1.4 h; T max [4, 13]: 5.2 (3.0, 11.0) h; AUC 0-t /dose [4, 14]: 8.22 ± 3.43** h·kg·L^-1; CL/F [4, 15]: 2.33 ± 0.83 mL/min/kg; Cmax [4, 15]: 857 ± 245 nM; MRT [4, 15]: 20.2 ± 1.5 h; T max [4, 15]: 7.6 (3.0, 24.0) h
CC(NC(C)(C)C)C(=O)c1cccc(Cl)c1 (centres unmarked) [BUP, Bupropion]							328 ± 181 nM	2.1 h	62.2 mL/min/kg	6.8 ± 1.9 h	306 ± 147 nM	2.5 h	63 mL/min/kg	6.1 ± 1.7 h							
C[C@@H]1CC[C@H]2[C@@H](C)C(=O)O[C@@H]3O[C@@]4(C)CC[C@@H]1[C@]32O4 [DeoxyQHS, Deoxyartemisinin]	71 ± 46.1 nM	55.6 ± 33.3 nM	7.1 ± 0.6 h	6.2 ± 1.5 h	2.3 h	stable															AUC 0-t /dose ([1]; 1-day (first oral dose of QHS-PQ, 1.8 mg/kg QHS plus 10.6 mg/kg piperaquine), 14 healthy Chinese, plasma): 0.09 ± 0.05** h·kg·L^-1; T max ([1]; 1-day oral QHS-PQ, value (range)): 2.2 (1.25, 4.0) h; AUC 0-t /dose ([1]; 2-day (second daily oral dose of QHS-PQ)): 0.06 ± 0.04** h·kg·L^-1; Geometric mean ratio (90% CI) of AUC 0-t /dose ([1]; 2-day versus 1-day oral QHS-PQ): 0.68 (0.58, 0.79)**; Geometric mean ratio (90% CI) of AUC M /AUC QHS ([1]; 2-day versus 1-day oral QHS-PQ): 1.18 (0.97, 1.43); Geometric mean ratio (90% CI) of C max ([1]; 2-day versus 1-day oral QHS-PQ): 0.78 (0.69, 0.89)*; Geometric mean ratio (90% CI) of CL/F ([1]; 2-day versus 1-day oral QHS-PQ): 1.68 (1.45, 1.95)**; Geometric mean ratio (90% CI) of MRT ([1]; 2-day versus 1-day oral QHS-PQ): 0.89 (0.79, 0.99); change of Tmax and MRT after repeated drug dosing ([1]; P > 0.05): did not change; Tmax ([1]; human, po, 1-day oral QHS-PQ, value (range)): 1.3 to 4 h; decrease in AUC 0-t after multiple oral doses ([1]; in 13 out of 14 subjects, range 20.3-71.8%): 34.7%; decrease of metabolic capability AUCdeoxy-QHS/AUCQHS after the second dose ([1]; in four subjects): 41.6%; increase of metabolic capability AUCdeoxy-QHS/AUCQHS after the second dose ([1]; in six subjects): 1.6 fold; increase of CL/F after the second dose ([1]; second versus first oral dose of QHS-PQ): 1.7 fold; activity at CAR1/3 (CAR1/3): agonist; activity at PXR (PXR): agonist
OCc1ncc2n1-c1ccc(Cl)cc1C(c1ccccc1F)=NC2 [OH-MDZ, α-hydroxymidazolam]															4.99 (4.66, 5.33)**	2.95 (2.44, 3.56)**	0.19 (0.18, 0.21)**	1.14 (1.01, 1.28)	0.32 ± 0.09 kg·h/L	55.2 ± 14 mL/min/kg	Cmax [4, 13]: 82.3 ± 50.3 nM; MRT [4, 13]: 3.7 ± 1.0 h; T max [4, 13]: 1.1 (0.3, 2.0) h; AUC 0-t /dose [4, 14]: 1.60 ± 0.26** h·kg·L^-1; CL/F [4, 15]: 10.7 ± 1.83 mL/min/kg; Cmax [4, 15]: 243 ± 82 nM; MRT [4, 15]: 4.2 ± 0.5 h; T max [4, 15]: 1.5 (0.8, 3.0) h
